According to patent publication US10035792B2, “Resorcinol derivative as HSP90 inhibitor” (priority 2015, dated 2018):
One block for each compound: values may come before it.

Legend:
HSP90α = HSP90α (Homo sapiens (Human), UniProt P07900); test: Fluorescence polarization (FP) HSP90-alpha target binding assay; conditions: fluorescence polarization; read-out: Target binding ability HSP90α FP IC50
How it was run: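 Displacement of 5 nM GM-BODIPY from 30 nM HSP90 measured by fluorescence polarization (ex 485/em 535 nm). Buffer: 100 mM Tris-Cl pH 7.4, 20 mM KCl, 6 mM MgCl2, 5 μg/mL BSA. Incubation 12–16 h at 4 °C. Percent inhibition from mP relative to compound-free and tracer-only controls.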

[1] = tested on: human colon cancer cell line HCT116; test: Tumor cell growth inhibition, SRB staining, HCT116; format: cell-based; conditions: HCT-116, HCT116, 72 h
Procedure: The growth inhibition assay of tumor cells was detected by sulforhodamine B (SRB) staining method. The specific steps were as follows: inoculating human colon cancer cell line HCT116 and human lung cancer cell line A549 (purchased from American Type Culture Collection, ATCC) at the logarithmic growth phase into a 96-well micro culture plate at an appropriate concentration of 4000 cells/well, 100 μL for each well; after culturing overnight, adding with the compound at different concentrations (100, 10, 1, 0.1, 0.01 μM) to react for 72 h, wherein triplicate wells were set up for each concentration, and solvent control wells with the corresponding concentration and zero wells without cells were also set up. After the completion of the reaction, the culture medium was removed from the adherent cells, the later was added with 10% (w/v) trichloroacetic acid (100 μL/well) at 4° C. to fix for 1 h, and then washed five times with distilled water. After drying at room temperature, 100 μL of SRB solution (4 mg/mL, dissolved in 1% glacial acetic acid) was added into each well, followed by incubation and staining for 15 min at room temperature. The uncombined SRB was removed by washing five times with 1% glacial acetic acid. After drying at room temperature, 100 μL of 10 mM Tris solution was added into each well, and the optical density (OD) at 515 nm was measured by a […] microplate reader. The inhibition rate of the drug to tumor cell growth was calculated according to the following equation: Inhibition rate (%)=(OD of control well-OD of drug well)/OD of control well×100%. The experiment was repeated twice.

in vivo = test: in vivo; design: species or system SD rats; conditions: male, SD, rat, iv, 1 mg/kg
Procedure: SD rats were used as the subject animals. The drug concentrations in plasma, lung and breast tissue were measured by LC/MS/MS method at different times after the compound of Example 67 was intravenously injected at the tails of rats. The tissue distribution of the compounds of the present invention in rats was studied and their pharmacokinetic characteristics were evaluated. 2.1 Experimental Drugs: Luminespib, Ganetespib and the compound of Example 67. Healthy adult male SD rats, 100-200 g, 9 rats in total, purchased from Shanghai Slack Laboratory Animal Co., Ltd. The appropriate amounts of the samples were weighed. All of Luminespib, Ganetespib and the compound 67 of the present invention were formulated into clear solutions in […] in 10% DMSO/14% Cremophor RH40/76% D5W, for intravenous injection. 9 SD male rats were divided into three groups, three rats in each group. After normal feeding, administrations were carried out in tails by intravenous injection at the dose of 1 mg/kg. Samples were collected from blood, lung and breast tissues in three group rats at 0.5 h, 6 h and 24 h after administration. The blood samples were centrifuged at 4° C., 3000 rpm for 15 min within half an hour after collection, to separate and obtain plasma samples. The resulting plasma samples were placed in polypropylene tubes and stored at −80° C. for LC/MS/MS analysis. After the collection of the blood samples, the animals were sacrificed with CO2, followed by collection of the tissue samples. Each of the tissue samples was washed twice with cold deionized water and adhered to filter papers. Each of the tissue samples was then homogenized several times in MeOH/15 mM PBS (1:2) (5 mL MeOH/15 mM PBS (1:2) per gram of tissue, with a dilution factor of 6) to ensure the formation of homogeneous phase. The whole process was carried out below freezing point temperature. The homogenized samples were quickly frozen by using dry ice and stored at −80° C. for bioanalysis. The contents of the test compound in rat plasma, lung and breast tissue after injection administration were measured by LC/MS/MS.

BT-474 tumor cells = test: In vivo efficacy, BT-474 breast cancer transplantation tumor in nude mice; conditions: BT-474 xenograft
Procedure: (§1) BT-474 tumor cells were subcutaneously inoculated in the right armpit of nude mice in 5×10^6 cells/mouse, to form a transplantion tumor. When the volume reached 100-200 mm^3, the animals were randomly divided according to tumor volume, into the negative control group (n=6), the positive control group groups (n=6 in each group), and the experimental groups (n=6 in each group). The experimental groups were respectively injected intravenously with the positive drug Ganetespib (20 mg/kg) and compound 67 (10 mg/kg and 20 mg/kg) at different concentrations, three times a week, and the negative control group was administrated an equal amount of solvent simultaneously. The length (A) and width (B) of the tumor were measured twice a week with a vernier caliper, and the tumor volume was calculated according to V=A×B^2/2. Relative tumor volume (RTV) was calculated as follows: RTV=Vt/V0, wherein Vt is the tumor volume at the end of the administration, and V0 is the tumor volume measured before separation and administration. The pharmacodynamic evaluation index of antitumor activity is relative tumor proliferation rate T/C (%), and the calculation formula is: T/C (%)=TRTV/CRTV×100%, wherein TRTV: RTV of the treatment group; CRTV: RTV of the negative control group. Efficacy evaluation criteria: T/C %>60% is inefficient; T/C %≤60% and P<0.05 by statistical treatment is effective. The tumor growth inhibition rate (TGI) was calculated as follows: TGI (%)={[(CVt−CV0)−(TVt−TV0)]/(CVt−CV0)}×100%
(§2) Wherein, CVt is the tumor volume of the control group at the end of the administration; CV0 is the tumor volume of the control group before separation and administration; TVt is the tumor volume of the administration group at the end of the administration; and TV0 is the tumor volume of the administration group before separation and administration. The difference in tumor volume between the administration group and the control group was examined by t-test. At the same time, the body weights of nude mice in each group were weighed twice a week to preliminarily evaluate the toxic side effects of the drug.

[2] = tested on: human lung cancer cell line A549; test: Tumor cell growth inhibition, SRB staining, A549; format: cell-based; conditions: A549, 72 h
How it was run: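 Growth inhibition by SRB staining: 4000 cells/well seeded overnight, then compound at 100, 10, 1, 0.1 and 0.01 μM for 72 h in triplicate. Fixed with TCA, OD read at 515 nm. Inhibition rate taken against solvent control; experiment done twice.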

A549 tumor cells = test: In vivo efficacy, A549 transplantation tumor in nude mice; conditions: A549 xenograft, 50 mg/kg intravenously twice a week
Procedure: as §1, with “A549” for “BT-474”, “(n=5),” for “(n=6),”, “(n=5” for “(n=6”, “Luminespib (50” for “Ganetespib (20”, “1 (50” for “67 (10 mg/kg and 20”, “twice” for “three times”
as §2

[3] = concentration in breast tissue (nM)
[4] = 20 mpk intravenously three times a week
[5] = 10 mpk intravenously three times a week

IC50 (HSP90α): 20 to 100 nM
EC50 [1]: 20 to 100 nM
Structure (SMILES): CCNC(=O)c1noc(-c2cc(C(C)C)c(O)cc2O)c1-c1ccc2c(c1)CCCN2C [Example 3, 5-(2,4-dihydroxyl-5-isopropylphenyl)-N-ethyl-4-(1-methyl-1,2,3,4-tetrahydroquinolin-6-yl)isoxazole-3-carboxamide]

concentration at 0.5 h (in vivo; [3]): 352 nM
concentration at 6 h (in vivo; [3]): 70.9 nM
concentration at 0.5 h (in vivo; plasma concentration (nM)): 267 nM
concentration at 6 h (in vivo; plasma concentration (nM)): 4.46 nM
concentration at 0.5 h (in vivo; pulmonary concentration (nM)): 1010 nM
concentration at 6 h (in vivo; pulmonary concentration (nM)): 101 nM
Structure (SMILES): CC(C)c1cc(-c2n[nH]c(=O)n2-c2ccc3c(ccn3C)c2)c(O)cc1O [Ganetespib]
TGI (%) Day 21 (BT-474 tumor cells; [4]): 124%
TGI (%) Day 35 (BT-474 tumor cells; [4]): 108%

IC50 (HSP90α): > 100 nM
EC50 [1]: > 100 nM
Structure (SMILES): CCNC(=O)c1nsc(-c2cc(C(C)C)c(O)cc2O)c1-c1ccc2c(c1)CCN(C)C2 [Example 13, 5-(2,4-dihydroxyl-5-isopropyl-phenyl)-N-ethyl-4-(2-methyl-1,2,3,4-tetrahydroisoquinolin-6-yl)isothiazole-3-carboxamide]

IC50 (HSP90α): 20 to 100 nM
EC50 [1]: 20 to 100 nM
Structure (SMILES): CCNC(=O)c1noc(-c2cc(C(C)C)c(O)cc2O)c1-c1ccc2c(c1)N(C)CCC2 [Example 2, 5-(2,4-dihydroxyl-5-isopropylphenyl)-N-ethyl-4-(1-methyl-1,2,3,4-tetrahydroquinolin-7-yl)isoxazole-3-carboxamide]

IC50 (HSP90α): < 20 nM
EC50 [1]: < 20 nM
EC50 [2]: < 20 nM
Structure (SMILES): CCNC(=O)c1noc(-c2cc(C(C)C)c(O)cc2O)c1-c1ccc2c(c1)CCN(C)C2 [Example 1, 5-(2,4-dihydroxyl-5-isopropylphenyl)-N-ethyl-4-(2-methyl-1,2,3,4-tetrahydroisoquinolin-6-yl)isoxazole-3-carboxamide]
TGI (%) Day 7 (A549 tumor cells): 20%
TGI (%) Day 11 (A549 tumor cells): 40%
TGI (%) Day 14 (stopping administration) (A549 tumor cells): 63%
TGI (%) Day 17 (A549 tumor cells): 71%
TGI (%) Day 28 (A549 tumor cells): 60%

pulmonary exposure dose (in vivo): 5284 nM·h
concentration at 0.5 h (in vivo; [3]): 104 nM
concentration at 6 h (in vivo; [3]): 61.4 nM
concentration at 0.5 h (in vivo; plasma concentration (nM)): 67.1 nM
concentration at 0.5 h (in vivo; pulmonary concentration (nM)): 1000 nM
concentration at 6 h (in vivo; pulmonary concentration (nM)): 257 nM
concentration at 24 h (in vivo; pulmonary concentration (nM)): 35.9 nM
Structure (SMILES): CCNC(=O)c1noc(-c2cc(C(C)C)c(O)cc2O)c1-c1ccc(CN2CCOCC2)cc1 [Luminespib]
TGI (%) Day 7 (A549 tumor cells): 18%
TGI (%) Day 11 (A549 tumor cells): 34%
TGI (%) Day 14 (stopping administration) (A549 tumor cells): 49%
TGI (%) Day 17 (A549 tumor cells): 52%
TGI (%) Day 28 (A549 tumor cells): 35%

IC50 (HSP90α): < 20 nM
EC50 [2]: < 20 nM
breast tissue exposure dose (in vivo): 7226 nM·h
plasma exposure dose (in vivo): 415 nM·h
pulmonary exposure dose (in vivo): 30933 nM·h
concentration at 0.5 h (in vivo; [3]): 395 nM
concentration at 6 h (in vivo; [3]): 376 nM
concentration at 24 h (in vivo; [3]): 199 nM
concentration at 0.5 h (in vivo; plasma concentration (nM)): 115 nM
concentration at 6 h (in vivo; plasma concentration (nM)): 9.98 nM
concentration at 24 h (in vivo; plasma concentration (nM)): 3.72 nM
concentration at 0.5 h (in vivo; pulmonary concentration (nM)): 3040 nM
concentration at 6 h (in vivo; pulmonary concentration (nM)): 1530 nM
concentration at 24 h (in vivo; pulmonary concentration (nM)): 613 nM
Structure (SMILES): CCNC(=O)c1onc(-c2cc(C(C)C)c(O)cc2O)c1-c1ccc2c(c1)CCNC2 [Example 67, 3-(2,4-dihydroxyl-5-isopropylphenyl)-N-ethyl-4-(1,2,3,4-tetrahydroisoquinolin-6-yl)isoxazole-5-carboxamide]
TGI (%) Day 21 (BT-474 tumor cells; [5]): 137%
TGI (%) Day 35 (BT-474 tumor cells; [5]): 120%
TGI (%) Day 21 (BT-474 tumor cells; [4]): 135%
TGI (%) Day 35 (BT-474 tumor cells; [4]): 129%

IC50 (HSP90α): < 20 nM
EC50 [1]: < 20 nM
Structure (SMILES): CCNC(=O)c1noc(-c2cc(C(C)C)c(O)cc2O)c1C1=CC2CN(C)CC2C1 (stereo not drawn) [Example 14, 5-(2,4-dihydroxyl-5-isopropyl-phenyl)-N-ethyl-4-(2-methyl-1,2,3,3a,4,6a-hexahydrocyclopenta[c]pyrrol-5-yl)isoxazole-3-carboxamide]
